Experimental data taken from ChEMBL document CHEMBL1158815, “Sesquiterpene lactones from Centaurea spinosa and their antibacterial and cytotoxic activities” (2005).
Converted amounts (≈) assume the structure as drawn. The source made the active and inactive calls. The rule behind the calls is not given here.

Experiments:
[1] = system: Proteus mirabilis; test: Antimicrobial activity against Proteus mirabilis isolates by microdilution method; type: functional, organism-based
[2] = system: Pseudomonas aeruginosa; test: Antimicrobial activity against Pseudomonas aeruginosa ATCC 27853 by microdilution method; type: functional, organism-based
[3] = system: Escherichia coli; test: Antimicrobial activity against Escherichia coli ATCC 35218 by microdilution method; type: functional, organism-based
[4] = system: Micrococcus luteus; test: Antimicrobial activity against Micrococcus flavus ATCC 10240 by microdilution method; type: functional
[5] = system: Staphylococcus aureus; test: Antimicrobial activity against Staphylococcus aureus ATCC 6538 by microdilution method; type: functional
[6] = system: OVCAR-3; test: Cytotoxicity against human OVCAR-3 cells after 48 hrs by SRB assay; type: functional; conditions: OVCAR-3, 48 h
[7] = system: NCI-H460; test: Cytotoxicity against human H460 cells after 48 hrs by SRB assay; type: functional; conditions: NCI-H460, 48 h
[8] = system: DLD-1; test: Cytotoxicity against human DLD1 cells after 48 hrs by SRB assay; type: functional; conditions: DLD-1, 48 h
[9] = system: MCF7; test: Cytotoxicity against human MCF7 cells after 48 hrs by SRB assay; type: functional; conditions: MCF7, 48 h
[10] = system: SF-268; test: Cytotoxicity against human SF268 cells after 48 hrs by SRB assay; type: functional; conditions: SF-268, 48 h
[11] = system: DLD-1; test: Cytotoxicity against human DLD1 cells at <40 uM after 48 hrs by SRB assay; type: functional, cell-based
[12] = system: MCF7; test: Cytotoxicity against human MCF7 cells at <40 uM after 48 hrs by SRB assay; type: functional, cell-based
[13] = system: OVCAR-3; test: Cytotoxicity against human OVCAR-3 cells at <40 uM after 48 hrs by SRB assay; type: functional, cell-based
[14] = system: NCI-H460; test: Cytotoxicity against human H460 cells at <40 uM after 48 hrs by SRB assay; type: functional, cell-based
[15] = system: SF-268; test: Cytotoxicity against human SF268 cells at <40 uM after 48 hrs by SRB assay; type: functional, cell-based
[16] = system: Bacillus cereus; test: Antimicrobial activity against Bacillus cereus isolates by microdilution method; type: functional
[17] = read-out: LC50 (the source's name)

SMILES | Activity [1] | Activity [2] | Activity [3] | MIC [4] [µg/mL] | MIC [5] [µg/mL] | GI50 [6] [µM] | GI50 [9] [µM] | GI50 [10] [µM] | Activity [11] | Activity [12] | Activity [13] | Activity [14] | Activity [15] | MIC [16] [µg/mL] | other results
C=C1C(=O)O[C@@H]2[C@H]1[C@@H](OC(=O)/C(=C/COC(C)=O)CO)C[C@]1(C)[C@@H]2[C@@H](C=O)CC[C@H]1O | inactive | inactive | inactive | 0.437 (≈ 1 µM) | 3.5 (≈ 8.02 µM) | – | – | – | – | – | – | – | – | – | –
CC[C@]1(O)C[C@@H]2CN(CCc3c([nH]c4ccccc34)[C@@](C(=O)OC)(c3cc4c(cc3OC)N(C)[C@H]3[C@@](O)(C(=O)OC)[C@H](OC(C)=O)[C@]5(CC)C=CCN6CC[C@]43[C@@H]65)C2)C1 [VINBLASTINE] | – | – | – | – | – | < 0.01 | < 0.01 | < 0.01 | – | – | – | – | – | – | TGI [6]: < 0.01 µM; CC50 [6, 17]: 0.92 µM; GI50 [7]: < 0.01 µM; TGI [7]: 0.35 µM; GI50 [8]: < 0.01 µM; TGI [8]: 2.44 µM; CC50 [8, 17]: 2.48 µM; TGI [9]: 1.6 µM
C=C[C@]1(C)C[C@H](OC(=O)C(=C)[C@@H](O)CO)[C@@H](C(=C)C(=O)OC)[C@H](O)C1C(=C)CO (stereo partly drawn) | inactive | inactive | inactive | – | 5 (≈ 12.2 µM) | 31.9 | – | 37.6 | inactive | inactive | inactive | inactive | inactive | – | –
CN[C@@H]1[C@H](O[C@H]2[C@H](O[C@H]3[C@H](O)[C@@H](O)[C@H](N=C(N)N)[C@@H](O)[C@@H]3N=C(N)N)O[C@@H](C)[C@]2(O)C=O)O[C@@H](CO)[C@H](O)[C@H]1O [STREPTOMYCIN] | – | – | – | 0.1 (≈ 0.172 µM) | 5 (≈ 8.6 µM) | – | – | – | – | – | – | – | – | 0.1 (≈ 0.172 µM) | –
C=C[C@]1(C)C[C@H](OC(=O)C(=C)[C@@H](O)CO)[C@H]2C(=C)C(=O)O[C@@H]2[C@H]1C(=C)CO | inactive | inactive | inactive | 5 (≈ 13.2 µM) | 5 (≈ 13.2 µM) | – | – | 29.3 | – | inactive | – | – | inactive | 1.25 (≈ 3.3 µM) | –
C=C1C(=O)O[C@H]2[C@H]1[C@@H](OC(=O)C(=C)[C@@H](O)COC(C)=O)C[C@]1(C)[C@@H]2[C@@H](C=O)CC[C@H]1O | inactive | inactive | inactive | 5 (≈ 11.5 µM) | 5 (≈ 11.5 µM) | – | – | – | – | – | – | – | – | – | –
C=C1C(=O)O[C@H]2[C@H]1[C@@H](OC(=O)C(=C)[C@@H](O)CO)C[C@]1(C)[C@@H]2[C@H](C=O)CC[C@H]1O | inactive | inactive | inactive | 0.625 (≈ 1.58 µM) | 5 (≈ 12.7 µM) | 36.4 | 31.7 | – | inactive | inactive | inactive | inactive | inactive | 5 (≈ 12.7 µM) | GI50 [7]: 32.4 µM
C=C1C(=O)O[C@@H]2/C=C(\CO)CC/C=C(\C)C[C@H](OC(=O)/C(=C/COC(C)=O)CO)[C@@H]12 | inactive | inactive | inactive | 5 (≈ 11.9 µM) | 5 (≈ 11.9 µM) | – | – | – | – | – | – | – | – | 1.25 (≈ 2.97 µM) | –
C=C[C@]1(C)C[C@H](OC(=O)C(=C)[C@@H](O)CO)[C@H]2C(=C)C(=O)O[C@@H]2[C@H]1C(=C)C=O | inactive | inactive | inactive | 0.625 (≈ 1.66 µM) | 5 (≈ 13.3 µM) | 4.7 | 10 | 7.7 | inactive | inactive | inactive | inactive | inactive | 1.25 (≈ 3.32 µM) | GI50 [7]: 37 µM; TGI [10]: 38 µM
C=C1C(=O)O[C@H]2[C@H]1[C@@H](OC(=O)C(=C)[C@@H](O)CO)C[C@]1(C)[C@@H]2[C@@H](C=O)CC[C@H]1O [MALACITANOLIDE] | inactive | inactive | inactive | 5 (≈ 12.7 µM) | 5 (≈ 12.7 µM) | – | – | – | – | – | – | – | – | – | –
C=C1C(=O)O[C@@H]2/C=C(\CO)CC/C=C(\C)C[C@H](OC(=O)C(=C)[C@H](O)CO)[C@@H]12 [CNICIN] | inactive | inactive | inactive | 5 (≈ 13.2 µM) | – | 37.4 | 37.8 | – | inactive | inactive | inactive | inactive | inactive | 1.25 (≈ 3.3 µM) | –
C=C1C(=O)O[C@@H]2/C=C(\CO)CC/C=C(\C)C[C@H](OC(=O)C(=C)[C@@H](O)COC(C)=O)[C@@H]12 | inactive | inactive | inactive | 5 (≈ 11.9 µM) | 5 (≈ 11.9 µM) | – | – | – | – | – | – | – | – | 1.25 (≈ 2.97 µM) | –
